How the values were obtained:
DDR2 = molecular target: T1, DDR2 (Homo sapiens, UniProt Q16832); test: LanthaScreen Europium Kinase Binding assay, DDR2; settings: 5 nM DDR2, 10 nM Kinase Tracer 178, 1 h at rt; Ki from IC50 by Cheng-Prusoff; read-out: Ki DDR2
T1 construct: purchased Life Technologies
T1 sequence (Q16832 22-855): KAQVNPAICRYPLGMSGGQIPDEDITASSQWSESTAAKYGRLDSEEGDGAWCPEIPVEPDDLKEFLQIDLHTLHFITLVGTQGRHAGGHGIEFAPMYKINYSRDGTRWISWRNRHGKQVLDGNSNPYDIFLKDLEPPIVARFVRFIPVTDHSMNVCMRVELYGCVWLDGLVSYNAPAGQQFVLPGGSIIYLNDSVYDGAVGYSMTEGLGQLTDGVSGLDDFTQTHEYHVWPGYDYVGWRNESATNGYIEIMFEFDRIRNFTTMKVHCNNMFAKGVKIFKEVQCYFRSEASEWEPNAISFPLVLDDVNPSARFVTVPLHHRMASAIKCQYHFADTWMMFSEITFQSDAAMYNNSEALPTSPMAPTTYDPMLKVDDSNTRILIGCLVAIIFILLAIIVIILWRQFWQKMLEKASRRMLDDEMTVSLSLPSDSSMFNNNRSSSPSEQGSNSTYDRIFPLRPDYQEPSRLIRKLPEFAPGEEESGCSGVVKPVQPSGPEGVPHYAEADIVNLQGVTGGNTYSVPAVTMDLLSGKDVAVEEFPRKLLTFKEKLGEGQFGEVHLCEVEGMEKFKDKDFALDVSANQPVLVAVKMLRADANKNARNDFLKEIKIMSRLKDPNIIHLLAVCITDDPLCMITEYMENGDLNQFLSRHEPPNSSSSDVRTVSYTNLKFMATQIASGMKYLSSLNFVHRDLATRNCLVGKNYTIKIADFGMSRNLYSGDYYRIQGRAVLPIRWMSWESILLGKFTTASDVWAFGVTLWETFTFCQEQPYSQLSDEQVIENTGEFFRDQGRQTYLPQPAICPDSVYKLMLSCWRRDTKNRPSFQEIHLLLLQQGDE
Description: (§1) DDR1 and DDR2 binding assays were performed using Life Technologies LanthaScreen™ Europium Kinase Binding assay. […] IC50 values were determined in GraphPad Prism 7.0 software, using 4 parameter model: log (inhibitor) vs. response. IC50 values were converted in Ki using the Cheng-Prusoff equation (Ki-IC50/(1+ [Tracer]/Kd).

DDR1 = molecular target: T2, DDR1 (Homo sapiens, UniProt Q08345); test: LanthaScreen Europium Kinase Binding assay, DDR1; settings: 5 nM DDR1, 20 nM Kinase Tracer 178, 1 h at rt; Ki from IC50 by Cheng-Prusoff; read-out: Ki DDR1
T2 construct: purchased Carna Biosciences
T2 sequence (Q08345 19-913): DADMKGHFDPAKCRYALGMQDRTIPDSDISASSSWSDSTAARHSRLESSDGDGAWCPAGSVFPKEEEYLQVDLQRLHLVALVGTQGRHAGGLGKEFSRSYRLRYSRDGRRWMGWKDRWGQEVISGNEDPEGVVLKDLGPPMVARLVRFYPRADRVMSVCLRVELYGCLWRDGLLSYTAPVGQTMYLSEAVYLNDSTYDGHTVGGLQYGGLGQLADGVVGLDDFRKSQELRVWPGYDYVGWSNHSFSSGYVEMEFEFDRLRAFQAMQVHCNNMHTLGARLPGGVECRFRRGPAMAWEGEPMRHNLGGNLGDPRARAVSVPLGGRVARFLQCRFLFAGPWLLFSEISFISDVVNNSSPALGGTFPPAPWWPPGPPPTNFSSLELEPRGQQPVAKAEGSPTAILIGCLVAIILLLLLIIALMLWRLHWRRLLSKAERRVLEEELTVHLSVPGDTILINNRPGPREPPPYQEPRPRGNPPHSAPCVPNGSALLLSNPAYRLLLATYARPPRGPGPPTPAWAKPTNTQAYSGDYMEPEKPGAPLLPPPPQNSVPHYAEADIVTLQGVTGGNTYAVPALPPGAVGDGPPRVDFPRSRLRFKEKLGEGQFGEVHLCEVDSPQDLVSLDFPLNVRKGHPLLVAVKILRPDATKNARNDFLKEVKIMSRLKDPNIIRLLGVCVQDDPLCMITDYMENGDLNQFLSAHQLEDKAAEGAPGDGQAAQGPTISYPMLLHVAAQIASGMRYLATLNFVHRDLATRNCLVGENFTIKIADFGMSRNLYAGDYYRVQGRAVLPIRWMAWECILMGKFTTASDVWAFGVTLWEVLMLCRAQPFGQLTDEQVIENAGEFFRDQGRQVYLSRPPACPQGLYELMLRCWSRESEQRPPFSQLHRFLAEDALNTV
Description: as §1

| SMILES | Ki (DDR2) [nM] | Ki (DDR1) [nM] |
| --- | --- | --- |
| Cn1ccn2ncc(C(=O)N3CC4(CC(NC(=O)Nc5cc(C(F)(F)F)ncn5)C4)C3)c12 [Example 103, 1-(2-(1-methyl-1H-imidazo[1,2-b]pyrazole-7-carbonyl)-2-azaspiro[3.3]heptan-6-yl)-3-(6-(trifluoromethyl)pyrimidin-4-yl)urea] | 5 to 25 | < 5 |
| Cc1ccc(OC(F)(F)F)cc1NC(=O)N(C)C1CC2(C1)CN(C(=O)c1cnn3ccn(C)c13)C2 [Example 104, 1-methyl-1-(2-(1-methyl-1H-imidazo[1,2-b]pyrazole-7-carbonyl)-2-azaspiro[3.3]heptan-6-yl)-3-(2-methyl-5-(trifluoromethoxy)phenyl)urea] | 5 to 25 | < 5 |
| CN(C(=O)Nc1cc(OC(F)(F)F)ccn1)C1CC2(C1)CN(C(=O)c1cnn3ccn(C)c13)C2 [Example 105, 1-methyl-1-(2-(1-methyl-1H-imidazo[1,2-b]pyrazole-7-carbonyl)-2-azaspiro[3.3]heptan-6-yl)-3-(4-(trifluoromethoxy)pyridin-2-yl)urea] | 5 to 25 | < 5 |
| COc1ncc(C(F)(F)F)cc1NC(=O)NC1CC2(C1)CN(C(=O)c1cnn3ccn(C)c13)C2 [Example 107, 1-(2-methoxy-5-(trifluoromethyl)pyridin-3-yl)-3-(2-(1-methyl-1H-imidazo[1,2-b]pyrazole-7-carbonyl)-2-azaspiro[3.3]heptan-6-yl)urea] | 5 to 25 | < 5 |
| Cn1ccn2ncc(C(=O)N3CC4(CC(NC(=O)Nc5ccc(Cl)c(C(F)(F)F)c5)C4)C3)c12 [Example 108, 1-(4-chloro-3-(trifluoromethyl)phenyl)-3-(2-(1-methyl-1H-imidazo[1,2-b]pyrazole-7-carbonyl)-2-azaspiro[3.3]heptan-6-yl)urea] | 5 to 25 | < 5 |
| O=C(Nc1cc(CO)cc(C(F)(F)F)c1)NC1CC2(C1)CN(C(=O)c1ncnc3ccsc13)C2 [Example 110, 1-(3-(hydroxymethyl)-5-(trifluoromethyl)phenyl)-3-(2-(thieno[3,2-d]pyrimidine-4-carbonyl)-2-azaspiro[3.3]heptan-6-yl)urea] | < 5 | < 5 |
| CN(C(=O)Nc1cc(C#N)cc(OC(F)(F)F)c1)C1CC2(C1)CN(C(=O)c1cnn3ccn(C)c13)C2 [Example 111, 3-(3-cyano-5-(trifluoromethoxy)phenyl)-1-methyl-1-(2-(1-methyl-1H-imidazo[1,2-b]pyrazole-7-carbonyl)-2-azaspiro[3.3]heptan-6-yl)urea] | < 5 | < 5 |
| CN(C)Cc1ccc(NC(=O)NC2CC3(C2)CN(C(=O)c2ncnc4ccsc24)C3)cc1C(F)(F)F [Example 112, 1-(4-((dimethylamino)methyl)-3-(trifluoromethyl)phenyl)-3-(2-(thieno[3,2-d]pyrimidine-4-carbonyl)-2-azaspiro[3.3]heptan-6-yl)urea] | 5 to 25 | < 5 |
| O=C(Nc1cccc(C(F)(F)F)c1)NC1CC2(C1)CN(C(=O)c1cnn3cc(CO)ccc13)C2 [Example 113, 1-(2-(6-(hydroxymethyl)pyrazolo[1,5-a]pyridine-3-carbonyl)-2-azaspiro[3.3]heptan-6-yl)-3-(3-(trifluoromethyl)phenyl)urea] | < 5 | < 5 |
| CN(C(=O)Nc1cc(OC(F)(F)F)ccn1)C1CC2(C1)CN(C(=O)c1cnn3ccsc13)C2 [Example 114, 1-methyl-1-(2-(pyrazolo[5,1-b]thiazole-7-carbonyl)-2-azaspiro[3.3]heptan-6-yl)-3-(4-(trifluoromethoxy)pyridin-2-yl)urea] | 5 to 25 | < 5 |
| O=C(Nc1cccc(C(F)(F)F)c1)NC1CC2(C1)CN(C(=O)c1ccnc3[nH]ccc13)C2 [Example 115, 1-(2-(1H-pyrrolo[2,3-b]pyridine-4-carbonyl)-2-azaspiro[3.3]heptan-6-yl)-3-(3-(trifluoromethyl)phenyl)urea] | 5 to 25 | < 5 |
| O=C(Nc1cccc(C(F)(F)F)c1)NC1CC2(C1)CN(C(=O)c1cnn3cc(CNC4COC4)ccc13)C2 [Example 116, 1-(2-(6-((oxetan-3-ylamino)methyl)pyrazolo[1,5-a]pyridine-3-carbonyl)-2-azaspiro[3.3]heptan-6-yl)-3-(3-(trifluoromethyl)phenyl)urea] | 5 to 25 | < 5 |
| Cn1ccn2ncc(C(=O)N3CC4(CC(NC(=O)Nc5ccc(F)c(OC(F)(F)F)c5)C4)C3)c12 [Example 118, 1-(4-fluoro-3-(trifluoromethoxy)phenyl)-3-(2-(1-methyl-1H-imidazo[1,2-b]pyrazole-7-carbonyl)-2-azaspiro[3.3]heptan-6-yl)urea] | < 5 | < 5 |
| O=C(Nc1cccc(C(F)(F)F)c1)NC1CC2(C1)CN(C(=O)c1ncnc3[nH]ncc13)C2 [Example 122, 1-(2-(1H-pyrazolo[3,4-d]pyrimidine-4-carbonyl)-2-azaspiro[3.3]heptan-6-yl)-3-(3-(trifluoromethyl)phenyl)urea] | < 5 | < 5 |
| Cn1ccn2ncc(C(=O)N3CC4(CC(NC(=O)Nc5cc(C(F)(F)F)ccc5F)C4)C3)c12 [Example 123, 1-(2-fluoro-5-(trifluoromethyl)phenyl)-3-(2-(1-methyl-1H-imidazo[1,2-b]pyrazole-7-carbonyl)-2-azaspiro[3.3]heptan-6-yl)urea] | 5 to 25 | < 5 |
| Cn1ccn2ncc(C(=O)N3CC4(CC(NC(=O)Nc5cccc(SC(F)(F)F)c5)C4)C3)c12 [Example 125, 1-(2-(1-methyl-1H-imidazo[1,2-b]pyrazole-7-carbonyl)-2-azaspiro[3.3]heptan-6-yl)-3-(3-((trifluoromethyl)thio)phenyl) urea] | < 5 | < 5 |

Other lines, results leading:

| Ki (DDR2) [nM] | Ki (DDR1) [nM] | SMILES |
| --- | --- | --- |
| 5 to 25 | < 5 | O=C(Nc1cccc(C(F)(F)F)c1)NC1CC2(C1)CN(C(=O)c1cnn3ccn(CCO)c13)C2 [Example 102, 1-(2-(1-(2-hydroxyethyl)-1H-imidazo[1,2-b]pyrazole-7-carbonyl)-2-azaspiro[3.3]heptan-6-yl)-3-(3-(trifluoromethyl)phenyl)urea] |
| < 5 | < 5 | Cn1ccn2ncc(C(=O)N3CC4(CC(NC(=O)Nc5cc(F)cc(C(F)(F)F)c5)C4)C3)c12 [Example 106, 1-(3-fluoro-5-(trifluoromethyl)phenyl)-3-(2-(1-methyl-1H-imidazo[1,2-b]pyrazole-7-carbonyl)-2-azaspiro[3.3]heptan-6-yl)urea] |
| < 5 | < 5 | COc1ccc(S(F)(F)(F)(F)F)cc1NC(=O)NC1CC2(C1)CN(C(=O)c1cnn3ccn(C)c13)C2 [Example 109, 1-(2-methoxy-5-(pentafluoro-16-sulfaneyl)phenyl)-3-(2-(1-methyl-1H-imidazo[1,2-b]pyrazole-7-carbonyl)-2-azaspiro[3.3]heptan-6-yl)urea] |
| < 5 | < 5 | CN(C(=O)Nc1cccc(C(F)(F)C(F)(F)F)c1)C1CC2(C1)CN(C(=O)c1cnn3ccn(C)c13)C2 [Example 117, 1-methyl-1-(2-(1-methyl-1H-imidazo[1,2-b]pyrazole-7-carbonyl)-2-azaspiro[3.3]heptan-6-yl)-3-(3-(perfluoroethyl)phenyl) urea] |
| < 5 | < 5 | Cn1ccn2ncc(C(=O)N3CC4(CC(NC(=O)Nc5cc(C#N)cc(S(F)(F)(F)(F)F)c5)C4)C3)c12 [Example 119, 1-(3-cyano-5-(pentafluoro-16-sulfaneyl)phenyl)-3-(2-(1-methyl-1H-imidazo[1,2-b]pyrazole-7-carbonyl)-2-azaspiro[3.3]heptan-6-yl)urea] |
| < 5 | < 5 | O=C(Nc1cccc(S(F)(F)(F)(F)F)c1)NC1CC2(C1)CN(C(=O)c1ccnc3[nH]ncc13)C2 [Example 120, 1-(2-(1H-pyrazolo[3,4-b]pyridine-4-carbonyl)-2-azaspiro[3.3]heptan-6-yl)-3-(3-(pentafluoro-16-sulfaneyl)phenyl)urea] |
| 5 to 25 | < 5 | Cn1ccn2ncc(C(=O)N3CC4(CC(NC(=O)Nc5ccc(F)c(C(F)(F)F)c5)C4)C3)c12 [Example 121, 1-(4-fluoro-3-(trifluoromethyl)phenyl)-3-(2-(1-methyl-1H-imidazo[1,2-b]pyrazole-7-carbonyl)-2-azaspiro[3.3]heptan-6-yl)urea] |
| < 5 | < 5 | Cn1ccn2ncc(C(=O)N3CC4(CC(NC(=O)Nc5cc(F)cc(OC(F)(F)F)c5)C4)C3)c12 [Example 124, 1-(3-fluoro-5-(trifluoromethoxy)phenyl)-3-(2-(1-methyl-1H-imidazo[1,2-b]pyrazole-7-carbonyl)-2-azaspiro[3.3]heptan-6-yl)urea] |

— US20260285855A1, “HETEROARYL DERIVATIVES AS DDRS INHIBITORS” (CHIESI FARMACEUTICI S.P.A., priority 2023, published 2026)
